Test results from patent US20220111094A1, “PATHOGEN DECONTAMINATION OF PERSONAL PROTECTIVE EQUIPMENT (PPE), FACE FILTERING R[…] (FFR) AND SINGLE USE MEDICAL DEVICES (SUD)” (priority 2020, published 2022).

How the values were obtained:
Format in all cases: cell-based
HIV-1 = test: SuperFluids CFI decontamination of medical devices (MDV experiments), residual virus by TCID50; details: medical device components such as N95 masks
Experimental: Virus was eluted from control (black bars) and treated (white bars) beads by incubating them with 1 ml of growth media for 30 minutes at room temperature. The amount of HIV p24 in the eluate was measured in an ELISA.
The decontamination device prototype can be run in two modes: dynamic and static. In the static mode, virus-coated N95 face masks and other PPEs were placed in the CFI™ chamber and contacted with the SuperFluids™ for a specific amount of time at a specified pressure and temperature. The CFI™ chamber is be then rapidly exhausted into the expansion chamber. In the dynamic mode, SuperFluids™ is continuously flowed over the virus-coated glass beads at a rate of 20 mL/min, and slowly exhausted at the end of the experiment.

[1] = system: murine leukemia virus (MuLV); test: CFI inactivation of murine leukemia virus at conditions of almost identical density; details: 1,000 psig and 10° C., 2,000 psig and 22° C. and 4,000 psig and 40° C.
Experimental: Temperature. In preliminary studies, all experiments were conducted at or around room temperature in order to maximize the […] of the time and temperature control. Under these conditions, most of the CFI experiments were conducted at sub-critical conditions that may not be optimal for virus inactivation. Temperature will have an impact on both the thermodynamic properties of the SuperFluids™, the configurational structure of the virus, and the integrity of the PPEs and SUDs. Temperature with pressure defines the density of SuperFluids™, and their solvation capacities and expansion factors; the former impacts viral kill by a phospholipid solubilization mechanism and the latter by an explosive decompression mechanism. […] CFI™ technology thus favors lower temperatures, which are better for material integrity. Lowering the temperature often requires the lowering of pressure because density is directly (but not linearly) proportional to pressure and inversely proportional to temperature.

EMC = test: CFI virus inactivation of EMC in a FBS matrix; details: 50° C., 3,000 psig, previous data
Experimental: Since Freon-22 use and production may be adversely impacted by future environmental concerns, we evaluated alternate refrigerants. Per the listing of thermodynamic properties in Table 1, Freon-23 (trifluoromethane) appears to be an excellent CFI™ candidate because: (i) it is non-chlorinated (the chlorine component of chlorofluorocarbons is thought to be responsible for their negative impact on the ozone layer): (ii) it has a low critical temperature of 25.9° C. (allows operation close to critical conditions while minimizing thermal denaturation of heat sensitive materials); and (iii) it has a relatively large dipole moment of 1.6 Debye (a large potential of solubilizing polar lipids and fats). From a comparison of previous data on the CFI™ virus inactivation of EMC in a FBS matrix, Freon-23 appears to be the best alternate to Freon-22. On the average, Freon-23 inactivated ˜3 logs vs. ˜6 logs of EMC at similar conditions of temperature (50° C.) and pressure (3,000 psig).

| Structure (SMILES) | logs of EMC inactivated (on the average) (EMC) [logs] | other results |
| --- | --- | --- |
| O=C=O [Carbon dioxide] |  | virus inactivation of HIV viruses associated with medical device components (HIV-1): quite effective |
| [N-]=[N+]=O [N20, Nitrous Oxide] |  | inactivation of MuLV [1]: equally effective |
| FC(F)F [Freon-23, trifluoromethane] | ~3 |  |
| FC(F)Cl [Freon-22, chlorodifluoromethane] | ~6 |  |
